The values below come from patent US8791108B2, “Inhibitors of human immunodeficiency virus replication” (priority 2011, dated 2014).

SMILES strings stand for the structures. Where two headings read alike, the source gives them in different places.

The assay relates to recombinant NL-Rluc virus. As to the kind of experiment: Inhibition of HIV replication (NL-RLuc luciferase reporter virus, MT-2 cells). The assay is classed as cell-based. To be noted: Human immunodeficiency virus 1, MT2, 120 h.

As for `Cc1nc2cc(C(=O)NCc3ccc(Oc4ccccc4)cc3)nn2c(-c2cc(F)c3c(c2C)CCCO3)c1[C@H](OC(C)(C)C)C(=O)O` [Example 68, (2S)-2-(tert-butoxy)-2-(7-(8-fluoro-5-methylchroman-6-yl)-5-methyl-2-((4-phenoxybenzyl)carbamoyl)pyrazolo[1,5-a]pyrimidin-6-yl)acetic acid], under “read-out: Activity”, the EC50 is less than 0.1 µM.

Turning to `Cc1nc2cc(C(=O)Nc3ccccc3)nn2c(-c2cc(F)c3c(c2C)CCCO3)c1[C@H](OC(C)(C)C)C(=O)O` [Example 123, (2S)-2-(tert-butoxy)-2-(7-(8-fluoro-5-methylchroman-6-yl)-5-methyl-2-(phenylcarbamoyl)pyrazolo[1,5-a]pyrimidin-6-yl)acetic acid], for the setting “read-out: Activity”, the EC50 was less than 0.1 µM.

`CCCc1cc(CNC(=O)c2cc3nc(C)c([C@H](OC(C)(C)C)C(=O)O)c(-c4cc(F)c5c(c4C)CCCO5)n3n2)ccc1F` [Example 25, (2S)-2-(tert-butoxy)-2-(2-((4-fluoro-3-propylbenzyl)carbamoyl)-7-(8-fluoro-5-methylchroman-6-yl)-5-methylpyrazolo[1,5-a]pyrimidin-6-yl)acetic acid]: the EC50 (read-out: Activity) was less than 0.1 µM.

With `Cc1nc2cc(C(=O)NCCOc3ccccc3)nn2c(-c2cc(F)c3c(c2C)CCCO3)c1[C@H](OC(C)(C)C)C(=O)O` [Example 55, (2S)-2-(tert-butoxy)-2-(7-(8-fluoro-5-methylchroman-6-yl)-5-methyl-2-((2-phenoxyethyl)carbamoyl)pyrazolo[1,5-a]pyrimidin-6-yl)acetic acid], the EC50 (read-out: Activity) was less than 0.1 µM.

Regarding `Cc1cccc(CN(C)C(=O)c2cc3nc(C)c([C@H](OC(C)(C)C)C(=O)O)c(-c4cc(F)c5c(c4C)CCCO5)n3n2)c1` [Example 20, (2S)-2-(tert-butoxy)-2-(7-(8-fluoro-5-methylchroman-6-yl)-5-methyl-2-(methyl(3-methylbenzyl)carbamoyl)pyrazolo[1,5-a]pyrimidin-6-yl)acetic acid], the EC50 (read-out: Activity) is less than 0.1 µM.

`Cc1nc2cc(C(=O)NCCOC(C)(C)C)nn2c(-c2cc(F)c3c(c2C)CCCO3)c1[C@H](OC(C)(C)C)C(=O)O` [Example 103, (2S)-2-(tert-butoxy)-2-(2-((2-(tert-butoxy)ethyl)carbamoyl)-7-(8-fluoro-5-methylchroman-6-yl)-5-methylpyrazolo[1,5-a]pyrimidin-6-yl)acetic acid]: the EC50 is, setting by setting: (read-out: Activity) 0.1 to 1 µM; (read-out: EC50 μM) 0.073 µM.

Consider `Cc1cc(CNC(=O)c2cc3nc(C)c([C@H](OC(C)(C)C)C(=O)O)c(/C=C/CC(C)C)n3n2)ccc1F` [Example 149, (S,E)-2-(tert-Butoxy)-2-(2-((4-fluoro-3-methylbenzyl)carbamoyl)-5-methyl-7-(4-methylpent-1-en-1-yl)pyrazolo[1,5-a]pyrimidin-6-yl)acetic acid], for which, where the note is “read-out: Activity”, the EC50 was greater than 1 µM.

Turning to `Cc1nc2cc(C(=O)NCc3ccc(F)cc3S(C)(=O)=O)nn2c(-c2cc(F)c3c(c2C)CCCO3)c1[C@H](OC(C)(C)C)C(=O)O` [Example 28, (2S)-2-(tert-butoxy)-2-(2-((4-fluoro-2-(methylsulfonyl)benzyl)carbamoyl)-7-(8-fluoro-5-methylchroman-6-yl)-5-methylpyrazolo[1,5-a]pyrimidin-6-yl)acetic acid], the EC50 (read-out: Activity) lay within 0.1 to 1 µM.

On to `Cc1nc2cc(C(=O)NCCCN3CCOCC3)nn2c(-c2cc(F)c3c(c2C)CCCO3)c1[C@H](OC(C)(C)C)C(=O)O` [Example 107], for which the EC50 (read-out: Activity) was greater than 1 µM.

With `Cc1nc2cc(C(=O)NCCC(C)(C)C)nn2c(-c2ccc3c(c2Cl)NCCO3)c1[C@H](OC(C)(C)C)C(=O)O` [Example 144, (2S)-2-(tert-Butoxy)-2-(7-(5-chloro-3,4-dihydro-2H-benzo[b][1,4]oxazin-6-yl)-2-((3,3-dimethylbutyl)carbamoyl)-5-methylpyrazolo[1,5-a]pyrimidin-6-yl)acetic acid], the EC50 (read-out: Activity) was 0.1 to 1 µM and the EC50 (read-out: EC50 μM) came out at 0.122 µM.

Consider `Cc1nc2cc(C(=O)N3CCN(CCc4ccccc4)CC3)nn2c(-c2cc(F)c3c(c2C)CCCO3)c1[C@H](OC(C)(C)C)C(=O)O` [Example 90, (2S)-2-(tert-butoxy)-2-(7-(8-fluoro-5-methylchroman-6-yl)-5-methyl-2-(4-phenethylpiperazine-1-carbonyl)pyrazolo[1,5-a]pyrimidin-6-yl)acetic acid], for which, where the note is “read-out: Activity”, the EC50 lay in the range of 0.1 to 1 µM.

As for `Cc1nc2cc(C(=O)N3CCN(c4ccc(F)cc4)CC3)nn2c(-c2cc(F)c3c(c2C)CCCO3)c1[C@H](OC(C)(C)C)C(=O)O` [Example 87, (2S)-2-(tert-butoxy)-2-(7-(8-fluoro-5-methylchroman-6-yl)-2-(4-(4-fluorophenyl)piperazine-1-carbonyl)-5-methylpyrazolo[1,5-a]pyrimidin-6-yl)acetic acid], the EC50 (read-out: Activity) was less than 0.1 µM.

Regarding `Cc1nc2cc(C(=O)NC(C)c3ccccc3)nn2c(-c2cc(F)c3c(c2C)CCCO3)c1[C@H](OC(C)(C)C)C(=O)O` (some centres unmarked) [Example 39], the EC50 (read-out: Activity) was less than 0.1 µM.

Regarding `Cc1nc2cc(C(=O)NCCC3CCOCC3)nn2c(-c2cc(F)c3c(c2C)CCCO3)c1[C@H](OC(C)(C)C)C(=O)O` [Example 129, (2S)-2-(tert-butoxy)-2-(7-(8-fluoro-5-methylchroman-6-yl)-5-methyl-2-((2-(tetrahydro-2H-pyran-4-yl)ethyl)carbamoyl)pyrazolo[1,5-a]pyrimidin-6-yl)acetic acid], the EC50 (read-out: Activity) was 0.1 to 1 µM.

For `CNC(=O)c1cc(F)ccc1CNC(=O)c1cc2nc(C)c([C@H](OC(C)(C)C)C(=O)O)c(-c3cc(F)c4c(c3C)CCCO4)n2n1` [Example 30, (2S)-2-(tert-butoxy)-2-(2-((4-fluoro-2-(methylcarbamoyl)benzyl)carbamoyl)-7-(8-fluoro-5-methylchroman-6-yl)-5-methylpyrazolo[1,5-a]pyrimidin-6-yl)acetic acid], the EC50 runs as follows: (read-out: Activity) 0.1 to 1 µM; (read-out: EC50 μM) 3.2 µM.

On to `CCCCCc1ccccc1CNC(=O)c1cc2nc(C)c([C@H](OC(C)(C)C)C(=O)O)c(-c3ccc4c(c3Cl)NCCO4)n2n1` [Example 142, (2S)-2-(tert-Butoxy)-2-(7-(5-chloro-3,4-dihydro-2H-benzo[b][1,4]oxazin-6-yl)-5-methyl-2-((2-pentylbenzyl)carbamoyl)pyrazolo[1,5-a]pyrimidin-6-yl)acetic acid], for which the EC50 (read-out: Activity) is less than 0.1 µM.

For `Cc1nc2cc(C(=O)NCc3ccc(Cl)c(C(F)(F)F)c3)nn2c(-c2cc(F)c3c(c2C)CCCO3)c1[C@H](OC(C)(C)C)C(=O)O` [Example 120, (2S)-2-(tert-butoxy)-2-(2-((4-chloro-3-(trifluoromethyl)benzyl)carbamoyl)-7-(8-fluoro-5-methylchroman-6-yl)-5-methylpyrazolo[1,5-a]pyrimidin-6-yl)acetic acid], the EC50 (read-out: Activity) is less than 0.1 µM.

`CNC(=O)c1cc2nc(C)c([C@H](OC(C)(C)C)C(=O)O)c(-c3cc(F)c4c(c3C)CCCO4)n2n1` [Example 137, (2S)-2-(tert-butoxy)-2-(7-(8-fluoro-5-methylchroman-6-yl)-5-methyl-2-(methylcarbamoyl)pyrazolo[1,5-a]pyrimidin-6-yl)acetic acid]: the EC50 (read-out: Activity) is greater than 1 µM.

Turning to `Cc1nc2cc(C(=O)NCCCC3CCCCC3)nn2c(-c2cc(F)c3c(c2C)CCCO3)c1[C@H](OC(C)(C)C)C(=O)O` [Example 131], under “read-out: Activity”, the EC50 is less than 0.1 µM.

In the case of `CCc1ccc(CN(C)C(=O)c2cc3nc(C)c([C@H](OC(C)(C)C)C(=O)O)c(-c4cc(F)c5c(c4C)CCCO5)n3n2)cc1` [Example 21, (2S)-2-(tert-butoxy)-2-(2-((4-ethylbenzyl)(methyl)carbamoyl)-7-(8-fluoro-5-methylchroman-6-yl)-5-methylpyrazolo[1,5-a]pyrimidin-6-yl)acetic acid], the EC50 (read-out: Activity) was less than 0.1 µM.

For `Cc1cc(CNC(=O)c2cc3nc(C)c([C@H](OC(C)(C)C)C(=O)O)c(C4=CCC(C)(C)CC4)n3n2)ccc1F` [Example 147, (S)-2-(tert-butoxy)-2-(7-(4,4-dimethylcyclohex-1-en-1-yl)-2-((4-fluoro-3-methylbenzyl)carbamoyl)-5-methylpyrazolo[1,5-a]pyrimidin-6-yl)acetic acid], under “read-out: Activity”, the EC50 is less than 0.1 µM.

Take `Cc1nc2cc(C(=O)NCCN3CCOCC3)nn2c(-c2cc(F)c3c(c2C)CCCO3)c1[C@H](OC(C)(C)C)C(=O)O` [Example 88, (2S)-2-(tert-butoxy)-2-(7-(8-fluoro-5-methylchroman-6-yl)-5-methyl-2-((2-morpholinoethyl)carbamoyl)pyrazolo[1,5-a]pyrimidin-6-yl)acetic acid]: the EC50 (read-out: Activity) is greater than 1 µM.

Turning to `Cc1nc2cc(C(=O)NCCc3nc4ccccc4s3)nn2c(-c2cc(F)c3c(c2C)CCCO3)c1[C@H](OC(C)(C)C)C(=O)O` [Example 119, (2S)-2-(2-((2-(benzo[d]thiazol-2-yl)ethyl)carbamoyl)-7-(8-fluoro-5-methylchroman-6-yl)-5-methylpyrazolo[1,5-a]pyrimidin-6-yl)-2-(tert-butoxy)acetic acid], for the setting “read-out: Activity”, the EC50 is less than 0.1 µM.

As to `Cc1nc2cc(C(=O)NCCc3ccccc3Cl)nn2c(-c2cc(F)c3c(c2C)CCCO3)c1[C@H](OC(C)(C)C)C(=O)O` [Example 111, (2S)-2-(tert-butoxy)-2-(2-((2-chlorophenethyl)carbamoyl)-7-(8-fluoro-5-methylchroman-6-yl)-5-methylpyrazolo[1,5-a]pyrimidin-6-yl)acetic acid], the EC50 (read-out: Activity) is less than 0.1 µM.

In the case of `Cc1nc2cc(C(=O)NCC3CCOCC3)nn2c(-c2cc(F)c3c(c2C)CCCO3)c1[C@H](OC(C)(C)C)C(=O)O` [Example 101, (2S)-2-(tert-butoxy)-2-(7-(8-fluoro-5-methylchroman-6-yl)-5-methyl-2-(((tetrahydro-2H-pyran-4-yl)methyl)carbamoyl)pyrazolo[1,5-a]pyrimidin-6-yl)acetic acid], where the note is “read-out: Activity”, the EC50 lay within 0.1 to 1 µM.

With `Cc1nc2cc(C(=O)NCc3ccccn3)nn2c(-c2cc(F)c3c(c2C)CCCO3)c1[C@H](OC(C)(C)C)C(=O)O` [Example 104, (2S)-2-(tert-butoxy)-2-(7-(8-fluoro-5-methylchroman-6-yl)-5-methyl-2-((pyridin-2-ylmethyl)carbamoyl)pyrazolo[1,5-a]pyrimidin-6-yl)acetic acid], under “read-out: Activity”, the EC50 is greater than 1 µM.
